Data on one compound can be found in US10316313B2, “Mesoporous catalysts of magnetic nanoparticles and free-radical-producing enzymes, and methods of use” (Cornell University, priority 2011, dated 2019).

Each structure is given as a SMILES string. Entries after “also recorded” stand apart in the source; their conditions may differ.

Experiment [1] has as its target T1, Horseradish Peroxidase (HRP, E.C. 1.11.1.7, type VI-A) entrapped in M25 magnetite nanoparticle clusters (M25-BNC) (Armoracia rusticana, UniProt P00433).
T1 construct: purchased
T1 sequence (P00433 31-338 limits assumed): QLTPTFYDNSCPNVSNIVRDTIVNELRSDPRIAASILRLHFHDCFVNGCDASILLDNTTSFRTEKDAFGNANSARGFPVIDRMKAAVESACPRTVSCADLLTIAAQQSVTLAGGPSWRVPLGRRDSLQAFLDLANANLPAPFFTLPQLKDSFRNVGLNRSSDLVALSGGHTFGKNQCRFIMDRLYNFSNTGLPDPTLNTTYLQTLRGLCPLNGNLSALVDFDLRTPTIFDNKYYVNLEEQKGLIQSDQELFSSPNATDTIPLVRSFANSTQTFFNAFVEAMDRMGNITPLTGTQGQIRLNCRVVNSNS
As to the kind of experiment: Phenol/AAP assay, H2O2 substrate inhibition model, M25-BNC. Type of experiment: biochemical. The source says:
(§1) The enzymes used in this study were Horseradish Peroxidase (HRP, E.C. 1.11.1.7, type VI-A), Lignin Peroxidase (LiP, E.C. 1.11.1.14), Manganese Peroxidase (MnP; E.C. 1.11.1.13) Versatile Peroxidase (syn. hybrid peroxidase, manganese-lignin peroxidase: VeP EC 1.11.1.16), and laccase. All enzymes used herein were obtained from commercial sources. […] High activity forms were obtained by further purification by FPLC (AKTA Explorer, GE Bioscience) using an anionic exchange column (Resource Q, GE Bioscience). Laccase was used without further purification. Protein signal was monitored at 280 nm and the heme signal at 405 nm. For each enzyme, the fractions with a RZ above 1 were pulled together, concentrated and aliquoted. Phenol, homovanillic acid, veratryl alcohol, methoxylphenol, 4-aminoantipyrine (AAP), glucose (the foregoing being at 98% purity), sodium phosphate buffer (PBS) of pH 7.4 and 67 mM, magnetite microsphere powder, manganese sulfate, hydrogen peroxide, FeCl3.6H2O, and FeCl2.4H2O, O-phosphoethydiamine, gold tetrachlorohydrate, and malonate and tartrate disodium salts were obtained from commercial sources.
(§2) Magnetite nanoparticles were synthesized by co-precipitation of Fe^2+ and Fe^3+ under alkaline conditions in a bubbling nitrogen atmosphere at 25° C. (M25) or 90° C. (M90). An acidic solution (25 ml) of the iron salts (2 g of FeCl2.4H2O and 5.2 g of FeCl3.6H2O) was added dropwise to NaOH (250 ml, 1.5 M) under constant stirring. Non-oxidizing conditions were achieved by bubbling all solutions with nitrogen for 15 minutes prior to reaction. The instantaneous black precipitation of Fe3O4 was captured with a neodymium magnet, washed, and neutralized, and kept in distilled water until further use.
(§3) All BNCs were formed with either M90 or M25 magnetite nanoparticles, gold-coated or not. The BNCs were formed with either Horseradish peroxidase, Lignin Peroxidase, Manganese Peroxidase or Versatile Peroxidase. Typical BNC synthesis required the MNPs to be initially monodispersed (i.e., individualized and non-aggregated MNPs). MNPs were sonicated in an ultrasonic bath for 20 minutes at room temperature and used immediately to form the BNCs. In preliminary experiments, the effects of buffer composition, buffer strength, and incubation time were investigated to measure their influence on the formation of the BNCs and the activity of the enzymes. […]
(§4) The peroxidase activity of native HRP and BNC was monitored using the chromogenic phenol/AAP assay that generates phenoxy radicals that readily react with […] to form the pink-colored quinoneimine dye. An automated plate-reader (Synergy 4, Biotek) with injection capabilities and temperature-controlled chamber was used to record the absorbance of the solution at 510 nm in 96-well plates (4 replicates) for 30 minutes. […]

For experiment [2], the target named is T2, Horseradish Peroxidase (HRP, E.C. 1.11.1.7, type VI-A) entrapped in M90 magnetite nanoparticle clusters (M90-BNC) (Armoracia rusticana, UniProt P00433).
T2 construct: purchased
T2 sequence (P00433 31-338 limits assumed): T1 sequence (P00433 31-338 limits assumed)
As to the kind of experiment: Phenol/AAP assay, H2O2 substrate inhibition model, M90-BNC. Type of experiment: biochemical.
Source text: as §1, §2, §3, §4

[3] abbreviates: compared to the free enzyme at the same concentration.

On to `OO` [H2O2, hydrogen peroxide], for which, in experiment [1] (compared to free HRP), the “Ki (H2O2 substrate inhibition constant)” value was “in the same range than the free HRP; also recorded: in the same range, if not lower, than for the free enzymes” and the Km entry is reported as “higher Km; also recorded: increased in the case of BNCs formed with M25”. In addition, in experiment [1] (setting [3]), the Vmax result is “two to three times greater than the free enzyme; also recorded: increased in the case of BNCs formed with M25 compared to the Vmax of the free enzymes” and the kcat result was “two to three times greater than the free enzyme; also recorded: drastically increased in the case of BNCs formed with M25 compared to the free enzyme”. Moreover, in experiment [2] (compared to free HRP), the Vmax result is reported as “similar; also recorded: No difference in Vmax” and the kcat result is given as “also increased for lower concentrations of enzymes”. For the same compound, the “Ki (H2O2 substrate inhibition constant)” value in experiment [2] (in words, compared to free HRP) was “drastically increased”. The “Ki (H2O2 substrate inhibition constant), times greater than the free HRP” value in experiment [2] (ratio to free HRP) is reported as “about 10 times”.
